Measurements: patent publication US4021546A (priority 1976, dated 1977)
≈ marks a conversion by molar mass, not a printed value.

What was measured:
[1] = recent reports; cited from earlier work
[2] = tested on: animal enzymes; settings: more recent studies; cited from earlier work
[3] = 25° C.; cited from earlier work
[4] = from the gastrointestinal tract, cited from earlier work
[5] = compared to digitoxin; cited from earlier work
[6] = in vivo; cited from earlier work
[7] = physchem; settings: 0.01 n hcl

Row | Structure (SMILES) | demethylation in man [1] | resistance to degradation by animal enzymes [2] | solubility per ml of 0.1 N HCl [3] | completeness of absorption vs digitoxin ([4]; compared to digitoxin) | extent of absorption [4] | duration of action [5] | onset of action [5] | closeness of therapeutic and toxic dose [6] | solubility [7] [µg/mL]
1 | CO[C@H]1[C@@H](O)C[C@H](O[C@H]2[C@@H](O)C[C@H](O[C@H]3[C@@H](O)C[C@H](O[C@H]4CC[C@@]5(C)[C@H](CC[C@@H]6[C@@H]5C[C@@H](O)[C@]5(C)[C@@H](C7=CC(=O)OC7)CC[C@]65O)C4)O[C@@H]3C)O[C@@H]2C)O[C@@H]1C [4'"-methyldigoxin] | actually demethylated in man | very resistant to degradation by animal enzymes |  |  |  |  |  |  | 
2 | C[C@H]1O[C@@H](O[C@H]2[C@@H](O)C[C@H](O[C@H]3[C@@H](O)C[C@H](O[C@H]4CC[C@@]5(C)[C@H](CC[C@@H]6[C@@H]5C[C@@H](O)[C@]5(C)[C@@H](C7=CC(=O)OC7)CC[C@]65O)C4)O[C@@H]3C)O[C@@H]2C)C[C@H](O)[C@@H]1O [digoxin] |  |  | about 78 mcg/ml | not as completely absorbed | 50% to 70 | shorter | quite more rapid | extremely close | ~78 (≈ 99.9 µM)
